This note sets out measurements from ChEMBL document CHEMBL5247678, “Design, Synthesis, and Structure-Activity Relationships of Biaryl Anilines as Subtype-Selective PPAR-alpha Agonists” (ACS Med Chem Lett, 2023).

A short description of data set [1]: Cytotoxicity against human RPE cells measured upto 50 uM. It counts as toxicity, cell-based.
Data set [2] can be described thus: Cytotoxicity against human RPE cells assessed as cell viability at 50 uM. The data set is classed as toxicity, cell-based.

On to `O=C(O)c1cc(F)cc(NCc2ccc(-c3ccccc3)cc2)c1`, for which the Activity entry in data set [1] was “Non-Toxic”. Regarding `O=C(O)c1cc(F)cc(NCc2cn(-c3ccc(C(F)(F)F)cc3)nn2)c1`, the Activity entry is listed as “Toxic” in data set [2] and “Non-Toxic” in data set [1]. `O=C(O)c1cc(F)cc(NCc2ccc(-c3ccccc3C(F)(F)F)cc2)c1`: the Activity result in data set [1] is given as “Non-Toxic”.

Consider `O=C(O)c1cc(F)cc(NCc2ccc(-c3ccc(C(F)(F)F)cc3)cc2)c1`, for which, in data set [1], the Activity entry is given as “Non-Toxic”.
